For 122 molecules, melting point results are on record in a melting point compilation (Tetko et al.).

Structures are written as SMILES.

Usually melting point stands for the temperature of the solid-liquid transition. In turn, `CC1CCc2c(sc3nc(CCl)[nH]c(=O)c23)C1` (configuration not stated) had a melting point of 180 to 182 °C. The figure for `Cc1nc(S(=O)(=O)Oc2c(F)c(F)c(F)c(F)c2F)sc1C` is 98 to 100 °C; for `COc1ccc(N)cc1OCc1ccncc1` it is 116 to 118 °C.

In turn, `O=C(O)c1cc(-c2ccc(Cl)c(Cl)c2)ns1` returned a melting point of 208 to 210 °C. As for `Cc1sc2nc(CN3CCOCC3)nc(Cl)c2c1C`, the figure is 102 to 104 °C.

For `COCCOc1ccc(C(=O)O)cn1`, the melting point fell in the range of 134 to 136 °C.

The molecule `O=C(O)Cc1csc(NC(=O)OCC(F)(F)F)n1` had a melting point of 182 to 184 °C.

`O=C(O)c1ccc2[nH]nnc2n1` gave a melting point of 277 to 279 °C. `O=C(O)CCCCCc1cccs1` showed a melting point of 43 to 45 °C. The figure for `CC(=O)Nc1cc(N)ccc1F` is 134 to 136 °C. As for `NNC(=O)c1cnn(-c2ccccc2)c1`, the figure is 179 to 181 °C; as for `O=c1[nH]c2ccccc2nc1NO`, 258 to 260 °C; as for `CC(C)(C)NCCC(N)=O`, 95 to 97 °C. As for `CC(=O)c1ccc(N)cc1Cl`, the figure is 58 to 60 °C; as for `COc1ccc(S(=O)(=O)N2CCCCCC2)cc1NC(=O)CCl`, 105 to 107 °C; as for `O=C(CBr)c1ccc(S(=O)(=O)N2CCCC2)cc1`, 121 to 123 °C. As to `Cc1ccc(NC(=O)CCl)c(Br)c1`, the melting point was in the range of 169 to 171 °C. For `O=C(O)Cc1csc(-c2ccc(Cl)cc2Cl)n1`, the melting point fell in the range of 159 to 161 °C.

`Cc1noc(C)c1CSCC(=O)O` registered a melting point of 92 to 94 °C. As to `Cc1ccc(-n2c(C)nnc2S)cc1`, the melting point was in the range of 98 to 100 °C.

As to `O=C(O)c1cc2ccccc2c(Nc2ccccc2F)n1`, the melting point lay within 224 to 226 °C. As for `Cc1ccccc1-c1cc(N)[nH]n1`, the figure is 168 to 170 °C; as for `O=C(O)Cc1csc(NC(=O)c2cccs2)n1`, 194 to 196 °C. As for `O=C1Nc2c(F)ccc(Cl)c2C1=O`, the figure is 279 to 281 °C; as for `O=C(CCl)NCc1cnn(-c2ccccc2)c1`, 110 to 112 °C. `COc1cc([N+](=O)[O-])ccc1NC(=O)CCCl` returned a melting point of 144 to 146 °C. The molecule `CS(=O)(=O)c1nc2ccccc2s1` came in with a melting point of 86 to 89 °C. Molecule `NC(=O)c1cc(S(=O)(=O)N2CCCC2)ccc1O` registered a melting point of 254 to 260 °C. The figure for `Cn1c(S)nnc1CO` is 189 to 191 °C; for `Cc1ccc(Nc2nnc(S)s2)cc1C` it is 181 to 183 °C. As for `C=CCSc1nnc(N)s1`, the figure is 119 to 121 °C; as for `CN(c1ccccc1N)S(C)(=O)=O`, 138 to 140 °C.

Molecule `CN1C(=O)CNC1=O` displayed a melting point of 177 to 179 °C. The figure for `Cn1c(N)nc2c(F)cccc21` is 163 to 165 °C. `O=S(=O)(Cl)c1ccc2c(c1)COC2` showed a melting point of 98 to 100 °C. Turning to `C=CCn1cc(C(=O)O)c2ccccc21`, the melting point lay in the range of 159 to 161 °C. In the case of `Nc1c(C(=O)N2CCOCC2)oc2ccccc12`, the melting point was in the range of 123 to 125 °C. As for `Nc1cc(C(F)(F)F)ccc1-n1cncn1`, the figure is 119 to 121 °C; as for `Nc1nc(-c2ccc(Cl)cc2)no1`, 248 to 250 °C; as for `COCc1c(C(=O)O)sc2ccccc12`, 159 to 161 °C.

As to `O=C(O)c1ccc(CN2C(=O)CCC2=O)cc1`, the melting point was in the range of 229 to 231 °C. As for `Cc1ccc(NC(N)=S)cc1F`, the figure is 148 to 150 °C; as for `O=C(O)CC1CCCN1C(=O)c1ccc(Br)c(F)c1` (configuration not stated), 134 to 136 °C; as for `COC(=O)c1cc(N)cc(C(F)(F)F)c1`, 78 to 80 °C.

Take `OC1CCCOc2cc(Br)ccc21` (configuration not stated): the melting point was 73 to 75 °C. As for `COc1ccc(Br)c(C(=O)O)c1N`, the figure is 139 to 141 °C. The figure for `Nc1nnc(CCc2ccccc2)c(=O)n1N` is 243 to 245 °C; for `COC(=O)c1ncsc1S(N)(=O)=O` it is 155 to 157 °C. As for `COc1cc(Cl)c(S(=O)(=O)Cl)cc1Cl`, the figure is 76 to 78 °C. `O=C(O)C=Cc1ccc(S(=O)(=O)N2CCOCC2)cc1` had a melting point of 249 to 251 °C.

The molecule `O=C(O)c1ccc(Oc2cccc(Br)c2)nc1` returned a melting point of 154 to 156 °C.

In the case of `O=C(O)CCCN1C(=O)c2ccccc2C1=O`, the melting point fell in the range of 96 to 98 °C.

`Cc1sc2ccccc2c1S(=O)(=O)Cl` came in with a melting point of 117 to 119 °C.

Consider `CC(C(=O)O)n1cc(Cl)cn1` (configuration not stated), for which the melting point lay within 56 to 59 °C. Take `CC(C)CNc1c(N)n(Cc2ccccc2)c(=O)[nH]c1=O`: the melting point was in the range of 211 to 213 °C.

`Nc1ccccc1NC(=O)c1ccncc1` yielded a melting point of 179 to 181 °C.

`COc1ccc(C(=O)O)nc1Br` showed a melting point of 232 to 234 °C. The figure for `CN(C)C(=O)c1cccc(O)c1` is 126 to 128 °C; for `O=[N+]([O-])c1ccc2[nH]c(-c3cscn3)nc2c1` it is 257 to 259 °C.

In the case of `Cc1ccc(S(=O)(=O)N2CCCCC2C)cc1C(=O)O` (configuration not stated), the melting point was 149 to 151 °C. In turn, `Cc1nccn1-c1ncccc1N` yielded a melting point of 166 to 168 °C. The figure for `O=C(O)/C=C/c1cc(Cl)ccc1Cl` is 192 to 194 °C. In the case of `CC(C)(C)OC(=O)NNCCS(C)(=O)=O`, the melting point lay within 105 to 107 °C.

`O=C(O)CCCCCNC(=O)NC1CCCCC1` yielded a melting point of 138 to 140 °C. Take `O=C(O)Cn1ccccc1=O`: the melting point is 220 to 222 °C. Take `Cc1n[nH]c(C)c1S(=O)(=O)Cl`: the melting point is 60 to 65 °C. `CN(C)CCOc1ccc(C(N)=S)cc1` displayed a melting point of 142 to 144 °C.

As to `COC(=O)C(=O)CC(=O)c1cc(Cl)ccc1Cl`, the melting point is 150 to 152 °C. For the molecule `CCc1ocnc1C(=O)O`, the melting point is 104 to 106 °C. The figure for `CS(=O)(=O)c1cccc(C(=O)c2cc(F)ccc2F)c1` is 87 to 89 °C. Turning to `CC(N)(C(N)=O)c1ccccc1` (configuration not stated), the melting point lay in the range of 114 to 116 °C. The figure for `CCCc1cnc(N)s1` is 43 to 45 °C; for `Nc1cccc(-c2nc(C3CC3)no2)c1` it is 89 to 91 °C.

As for `O=C(O)CC12CC3CC(C1)CC(C(F)(F)F)(C3)C2`, the melting point lay within 121 to 123 °C. The figure for `CC(=O)NCc1ccc(N)cc1` is 92 to 94 °C; for `Nc1nnc(SCC2COc3ccccc3O2)s1` (configuration not stated) it is 161 to 163 °C.

In the case of `S=C1Nc2ccccc2C2CC=NN12` (configuration not stated), the melting point lay in the range of 249 to 251 °C. The figure for `O=C(CCl)NCC(c1ccc(Cl)cc1Cl)c1c[nH]c2ccccc12` (configuration not stated) is 73 to 75 °C. `NC(=O)Cc1cccc(C(F)(F)F)c1` displayed a melting point of 106 to 108 °C.

For the molecule `O=Cc1ccccc1OCc1ccccn1`, the melting point was 73 to 75 °C.

In turn, `c1nc(C2CCCCN2)n[nH]1` (configuration not stated) had a melting point of 104 to 106 °C. The figure for `Cc1cc(N)n(-c2ccccc2C(F)(F)F)n1` is 102 to 104 °C. The figure for `CCOC(=O)c1cn2c(n1)NCCC2` is 171 to 173 °C; for `COC(=O)N1CCc2ccccc21` it is 72 to 74 °C. The figure for `O=C(O)c1ccc([N+](=O)[O-])[nH]1` is 162 to 164 °C; for `Cc1cccnc1CC(=O)C(F)(F)F` it is 121 to 123 °C.

Molecule `NC(=O)c1ccc(-c2nn[nH]n2)cc1` gave a melting point of 258 to 260 °C. The figure for `CS(=O)(=O)Cc1cccc(C(=O)O)c1` is 188 to 190 °C. As for `[N-]=[N+]=Nc1ccc(Cl)cc1C(F)(F)F`, the figure is 32 to 34 °C; as for `O=c1[nH]c2cc(Br)cc(Cl)c2o1`, 189 to 191 °C. With `CS(=O)(=O)N1CCCc2cc(C(=O)CCl)ccc21`, the melting point fell in the range of 118 to 120 °C. Consider `O=C(O)C1(Cc2nc3ccccc3s2)CCCC1`, for which the melting point is 155 to 157 °C.

`NC(=O)Nc1ccc(S(=O)(=O)F)cc1` returned a melting point of 177 to 179 °C.

Consider `Sc1cnnc2ccccc12`, for which the melting point lay in the range of 80 to 82 °C. The figure for `CC(C)c1ccc(NCC(=O)N2CCCC2)cc1` is 127 to 129 °C; for `CCN(CC)S(=O)(=O)c1cc(C(=O)O)ccc1OC` it is 182 to 184 °C; for `O=S1(=O)CCN1` it is 51 to 53 °C. The figure for `CCOC(=O)Nc1nnc(S)s1` is 205 to 207 °C; for `Nc1sc2c(c1C(=O)NC1CC1)CCC2` it is 170 to 172 °C. As for `NC(=O)CC(N)=S`, the figure is 97 to 110 °C. Turning to `CCc1nnc2ccc(Cl)nn12`, the melting point lay within 100 to 102 °C. The figure for `Cc1ccc(S(=O)(=O)N2CCOCC2)cc1NC(=O)CCl` is 76 to 78 °C.

In the case of `O=C(CCl)Nc1ccccc1[N+](=O)[O-]`, the melting point was 91 to 93 °C. As for `CCN(C1CC1)S(=O)(=O)c1c(C)n[nH]c1C`, the figure is 97 to 99 °C; as for `COc1ccc(C)cc1NC(=O)c1cc2ccccc2cc1O`, 178 to 180 °C. The figure for `COc1ccc(C(C)=O)cc1NC(C)=O` is 120 to 122 °C. `CC(=O)c1c(Cl)nc2sccn12` displayed a melting point of 159 to 161 °C. With `O=[N+]([O-])c1ccccc1NCCO`, the melting point was in the range of 76 to 78 °C. As for `O=C(O)c1nc(-c2cccs2)n(-c2ccc(F)cc2)n1`, the figure is 196 to 198 °C; as for `CCN(CC)c1ccc(C(=O)O)cn1`, 154 to 156 °C; as for `NCCNC(=O)c1ccc(O)cc1`, 191 to 193 °C.

The molecule `O=C(O)c1c2c(nc3ccccc13)C(=Cc1ccccc1Cl)CCC2` displayed a melting point of 98 to 100 °C. As for `O=C1CC(c2ccccc2)=NN1c1ccccc1Br`, the figure is 183 to 185 °C; as for `COCCNC(=O)C(C)Cl` (configuration not stated), 28 to 30 °C; as for `CN1CC(=O)N(Cc2ccc(C(N)=O)cc2N)C1=O`, 187 to 189 °C. The figure for `Nc1nc(Cc2ccc(Br)cc2)cs1` is 146 to 148 °C; for `O=C(O)CN1C(=O)C2C3C=CC(C3)C2C1=O` (configuration not stated) it is 146 to 148 °C; for `Nc1nnc(-c2c(F)cccc2Cl)o1` it is 152 to 154 °C. On to `O=C(O)CCNC(=O)c1ccncc1`, for which the melting point was in the range of 239 to 241 °C. The figure for `Cc1ccc(-c2nc(N)sc2CN(C)C)cc1` is 175 to 177 °C; for `COc1ccc(Br)c(C#N)c1` it is 101 to 103 °C.

In turn, `N#Cc1cc(N)ccc1N1CCC(O)CC1` gave a melting point of 137 to 139 °C.
